Patent publication US7238701B2, “Substituted tetrahydrobenzothienopyrimidinamine compounds useful for treating hyper-proliferative disorders” (Bayer Pharmaceuticals Corporation, priority 2003, dated 2007)

How the values were obtained:
[1] = test system: A431cells (human epidermoid carcinoma); experiment: In vitro tumor cell proliferation assay (Cell Titer-Glo luminescent cell viability), A431 cells; assay type: cell-based; settings: A-431, 72 h, 72 hours drug exposure, 10% Fetal Bovine Serum, ATP luminescence readout, read-out: IC50 (50% inhibition of cell proliferation)
From the text: (§1) In vitro Tumor Cell Proliferation Assay
(§2) The tumor cell proliferation assay used to test the compounds of the present invention involves a readout called Cell Titer-Glow® Luminescent Cell Viability Assay developed by Promega (Cunningham, B A “A Growing Issue: Cell Proliferation Assays, Modern kits ease quantification of cell growth” The Scientist 2001, 15(13), 26, and Crouch, S P et al., “The use of ATP bioluminescence as a measure of cell proliferation and cytotoxicity” Journal of Immunological Methods 1993, 160, 81–88), that measures inhibition of cell proliferation. Generation of a luminescent signal corresponds to the amount of ATP present, which is directly proportional to the number of metabolically active (proliferating) cells.
(§3) A431cells (human epidermoid carcinoma, ATCC # HTB-20) and BT474 (human breast carcinoma, ATCC # CRL-1555) were plated at a density of 2.5×10^3 cells/well in 96 well black-clear bottom tissue culture plates in RPMI media with 10% Fetal Bovine Serum and incubated at 37° C. Twenty-four hours later, test compounds are added at a final concentration range from as high 100 μM to as low 64 pM depend on the activities of the tested compounds in serial dilutions at a final DMSO concentration of 0.1%. Cells were incubated for 72 hours at 37° C. in complete growth media after addition of the test compound. After 72 hours of drug exposure, the plates were equilibrated to room temperature for approximately 30 min. Then, using a Promega Cell Titer Glo Luminescent® assay kit, lysis buffer containing 100 microliters of the enzyme luciferase and its substrate, luciferin mixture, was added to each well. The plates were mixed for 2 min on orbital shaker to ensure cell lysis and incubated for 10 min at room temperature to stabilize luminescence signal. The samples were read on VICTOR 2 using Luminescence protocol, and analyzed with Analyze5 software to generate IC50 values.

[2] = test system: BT474 (human breast carcinoma); experiment: In vitro tumor cell proliferation assay (Cell Titer-Glo luminescent cell viability), BT474 cells; assay type: cell-based; settings: BT-474, 72 hours drug exposure, 10% Fetal Bovine Serum, ATP luminescence readout, read-out: IC50 (50% inhibition of cell proliferation)
From the text: as §1, §2, §3

| Compound | IC50 [1] | IC50 [2] |
| --- | --- | --- |
| Brc1cccc(Nc2ncnc3sc4c(c23)CCC(CCN2CCCC2)C4)c1 (stereo not shown) [Example 85, N-(3-bromophenyl)-7-[2-(1-pyrrolidinyl)ethyl]-5,6,7,8-tetrahydro[1]benzothieno[2,3-d]pyrimidin-4-amine] | < 5 µM | < 5 µM |
| COCCNCCC1CCc2c(sc3ncnc(Nc4cccc(Br)c4)c23)C1 (stereo not shown) [Example 86, N-(3-bromophenyl)-7-{2-[(2-methoxyethyl)amino]ethyl}-5,6,7,8-tetrahydro[1]benzothieno[2,3-d]pyrimidin-4-amine] | < 5 µM | < 5 µM |
| COCCN(C)CCC1CCc2c(sc3ncnc(Nc4cccc(Br)c4)c23)C1 (stereo not shown) [Example 87, N-(3-bromophenyl)-7-{2-[(2-methoxyethyl)(methyl)amino]ethyl}-5,6,7,8-tetrahydro[1]benzothieno[2,3-d]pyrimidin-4-amine] | < 5 µM | < 5 µM |
| Brc1cccc(Nc2ncnc3sc4c(c23)CCC(CCn2ccnc2)C4)c1 (stereo not shown) [Example 88, N-(3-bromophenyl)-7-[2-(1H-emidazol-1-yl)ethyl]-5,6,7,8-tetrahydro[1]benzothieno[2,3-d]pyrimidin-4-amine] | < 5 µM | < 5 µM |
| COc1ccc(NCCC2CCc3c(sc4ncnc(Nc5cccc(Br)c5)c34)C2)cc1 (stereo not shown) [Example 89, N-(3-bromophenyl)-7-{2-[(4-methoxyphenyl)amino]ethyl}-5,6,7,8-tetrahydro[1]benzothieno[2,3-d]pyrimidin-4-amine] | < 50 µM | < 50 µM |
| COCCC1CCc2c(sc3ncnc(Nc4cccc(Br)c4)c23)C1 (stereo not shown) [Example 90, N-(3-bromophenyl)-7-(2-methoxyethyl)-5,6,7,8-tetrahydro[1]benzothieno[2,3-d]pyrimidin-4-amine] | < 50 µM | < 50 µM |
| COCCN1CCN(C(=O)CC2CCc3c(sc4ncnc(Nc5cccc(Br)c5)c34)C2)CC1 (stereo not shown) [Example 91, N-(3-bromophenyl)-7-{2-[4-(2-methoxyethyl)-1-piperazinyl]-2-oxoethyl}-5,6,7,8-tetrahydro[1]benzothieno[2,3-d]pyrimidin-4-amine] | < 50 µM | < 50 µM |
| CN(C)[C@@H]1CCN(C(=O)CC2CCc3c(sc4ncnc(Nc5cccc(Br)c5)c34)C2)C1 (stereo partly drawn) [Example 92, N-(3-bromophenyl)-7-{2-[(3R)-3-(dimethylamino)-1-pyrrolidinyl]-2-oxoethyl}-5,6,7,8-tetrahydro[1]benzothieno[2,3-d]pyrimidin-4-amine] | < 5 µM | < 5 µM |
| COCCN1CCN(CCC2CCc3c(sc4ncnc(Nc5cccc(Br)c5)c34)C2)CC1 (stereo not shown) [Example 93, N-(3-bromophenyl)-7-{2-[4-(2-methoxyethyl)-1-piperazinyl]ethyl}-5,6,7,8-tetrahydro[1]benzothieno[2,3-d]pyrimidin-4-amine] | < 5 µM | < 5 µM |
| CN(C)[C@@H]1CCN(CCC2CCc3c(sc4ncnc(Nc5cccc(Br)c5)c34)C2)C1 (stereo partly drawn) [Example 94, N-(3-bromophenyl)-7-{2-[(3R)-3-(dimethylamino)-1-pyrrolidinyl]ethyl}-5,6,7,8-tetrahydro[1]benzothieno[2,3-d]pyrimidin-4-amine] | < 5 µM | < 5 µM |
| CC(C)(O)CC1CCc2c(sc3ncnc(Nc4cccc(Br)c4)c23)C1 (stereo not shown) [Example 95, 1-{4-[(3-bromophenyl)amino]-5,6,7,8-tetrahydro[1]benzothieno[2,3-d]pyrimidin-7-yl}-2-methyl-2-propanol] | < 50 µM | < 5 µM |
| COCCN(C)CCC1CCc2c(sc3ncnc(Nc4ccc(F)c(Cl)c4)c23)C1 (stereo not shown) [Example 96, N-(3-chloro-4-fluorophenyl)-7-{2-[(2-methoxyethyl)(methyl)amino]ethyl}-5,6,7,8-tetrahydro[1]benzothieno[2,3-d]pyrimidin-4-amine] | < 5 µM | < 5 µM |
| CS(=O)(=O)CCNCCC1CCc2c(sc3ncnc(Nc4ccc(F)c(Cl)c4)c23)C1 (stereo not shown) [Example 97, N-(3-chloro-4-fluorophenyl)-7-(2-{[(2-methylsulfonyl)ethyl]amino}ethyl)-5,6,7,8-tetrahydro[1]benzothieno[2,3-d]pyrimidin-4-amine] | < 5 µM | < 5 µM |
| CN(C)CCNCCC1CCc2c(sc3ncnc(Nc4ccc(F)c(Cl)c4)c23)C1 (stereo not shown) [Example 98, N^1-(2-{4-[(3-chloro-4-fluorophenyl)amino]-5,6,7,8-tetrahydro[1]benzothieno[2,3-d]pyrimidin-7-yl}ethyl)-N^2,N^2-dimethyl-1,2-ethanediamine] | < 5 µM | < 5 µM |
| Fc1ccc(Nc2ncnc3sc4c(c23)CCC(CCN2CCN(Cc3ccncc3)CC2)C4)cc1Cl (stereo not shown) [Example 99, N-(3-chloro-4-fluorophenyl)-7-{2-[4-(4-pyridinylmethyl)-1-piperazinyl]ethyl}-5,6,7,8-tetrahydro[1]benzothieno[2,3-d]pyrimidin-4-amine] | < 50 µM | < 5 µM |
| CN(C)[C@@H]1CCN(CCC2CCc3c(sc4ncnc(Nc5ccc(F)c(Cl)c5)c34)C2)C1 (stereo partly drawn) [Example 100, N-(3-chloro-4-fluorophenyl)-7-{2-[(3R)-3-(dimethylamino)-1-pyrrolidinyl]ethyl}-5,6,7,8-tetrahydro[1]benzothieno[2,3-d]pyrimidin-4-amine] | < 50 µM | < 50 µM |
| COCCC1CCc2c(sc3ncnc(Nc4ccc(F)c(Cl)c4)c23)C1 (stereo not shown) [Example 101, N-(3-chloro-4-fluorophenyl)-7-(2-methoxyethyl)-5,6,7,8-tetrahydro[1]benzothieno[2,3-d]pyrimidin-4-amine] | < 50 µM | < 5 µM |
| OCCC1CCc2c(sc3ncnc(Nc4cccc(Br)c4)c23)C1 (stereo not shown) [Example 102, 2-{4-[(3-bromophenyl)amino]-5,6,7,8-tetrahydro[1]benzothieno[2,3-d]pyrimidin-7-yl}ethanol] | < 50 µM | < 50 µM |
| O=C(CC1CCc2c(sc3ncnc(Nc4cccc(Br)c4)c23)C1)N1CCN(Cc2ccncc2)CC1 (stereo not shown) [Example 103, N-(3-bromophenyl)-7-{2-oxo-2-[4-(4-pyridinylmethyl)-1-piperazinyl]ethyl}-5,6,7,8-tetrahydro[1]benzothieno[2,3-d]pyrimidin-4-amine] | < 50 µM | < 5 µM |
| CN1CCN(C(=O)CC2CCc3c(sc4ncnc(Nc5ccc(Br)cc5F)c34)C2)CC1 (stereo not shown) [Example 105, N-(4-bromo-2-fluorophenyl)-7-[2-(4-methyl-1-piperazinyl)-2-oxoethyl]-5,6,7,8-tetrahydro[1]benzothieno[2,3-d]pyrimidin-4-amine] | < 5 µM | < 5 µM |
| CCOC(=O)CC1CCc2c(sc3ncnc(Nc4ccc(OCc5cccc(F)c5)c(Cl)c4)c23)C1 (stereo not shown) [Example 136, {4-[3-Chloro-4-(3-fluoro-benzyloxy)-phenylamino]-5,6,7,8-tetrahydro-benzo[4,5]thieno[2,3-d]pyrimidin-7-yl}-acetic acid ethyl ester] | < 50 µM | < 5 µM |
| OCCC1CCc2c(sc3ncnc(Nc4ccc(OCc5cccc(F)c5)c(Cl)c4)c23)C1 (stereo not shown) [Example 137, 2-{4-[3-Chloro-4-(3-fluoro-benzyloxy)-phenylamino]-5,6,7,8-tetrahydro-benzo[4,5]thieno[2,3-d]pyrimidin-7-yl}-ethanol] | < 50 µM | < 5 µM |
| Fc1cccc(COc2ccc(Nc3ncnc4sc5c(c34)CCC(CCBr)C5)cc2Cl)c1 (stereo not shown) [Example 138, [7-(2-Bromo-ethyl)-5,6,7,8-tetrahydro-benzo[4,5]thieno[2,3-d]pyrimidin-4-yl]-[3-chloro-4-(3-fluoro-benzyloxy)-phenyl]-amine] | < 50 µM | < 5 µM |
| Fc1cccc(COc2ccc(Nc3ncnc4sc5c(c34)CCC(CCN3CCOCC3)C5)cc2Cl)c1 (stereo not shown) [Example 139, N-{3-chloro-4-[(3-fluorobenzyl)oxy]phenyl}-7-(2-morpholin-4-ylethyl)-5,6,7,8-tetrahydro[1]benzothieno[2,3-d]pyrimidin-4-amine] | < 5 µM | < 5 µM |
| CN(C)[C@H]1CCN(CCC2CCc3c(sc4ncnc(Nc5ccc(OCc6cccc(F)c6)c(Cl)c5)c34)C2)C1 (stereo partly drawn) [Example 140, N-{3-chloro-4-[(3-fluorobenzyl)oxy]phenyl}-7-{2-[(3S)-3-(dimethylamino)pyrrolidin-1-yl]ethyl}-5,6,7,8-tetrahydro[1]benzothieno[2,3-d]pyrimidin-4-amine] | < 5 µM | < 5 µM |
| CN(C)[C@H]1CCN(CCC2CCc3c(sc4ncnc(Nc5ccc(OCc6ccccn6)c(Cl)c5)c34)C2)C1 (stereo partly drawn) [Example 141, N-[3-chloro-4-(pyridin-2-ylmethoxy)phenyl]-7-{2-[(3S)-3-(dimethylamino)pyrrolidin-1-yl]ethyl}-5,6,7,8-tetrahydro[1]benzothieno[2,3-d]pyrimidin-4-amine] | < 5 µM | < 5 µM |
